Laboratory results taken from patent US20260285880A1, “SUBSTITUTED DIHYDROTHIENOPYRIMIDINE COMPOUND, PREPARATION METHOD THEREFOR, AND USE THEREOF” (SHANGHAI YIDI BIOTECHNOLOGY CO., LTD., priority 2023, published 2026).
Read-outs that look alike come from different tables or passages of the source.

Experiments:
PDE4B2 [1] = molecular target: T1, PDE4B2 (Homo sapiens, UniProt Q07343); test: biochemical; details: for inhibition at 0.01 µM: read-out: PDE4B2 Enzyme Inhibition % @10 nM; for inhibition at 0.1 µM: read-out: PDE4B2 Enzyme Inhibition % @100 nM
T1 sequence (Q07343 1-564 isoform Q07343-2, species assumed): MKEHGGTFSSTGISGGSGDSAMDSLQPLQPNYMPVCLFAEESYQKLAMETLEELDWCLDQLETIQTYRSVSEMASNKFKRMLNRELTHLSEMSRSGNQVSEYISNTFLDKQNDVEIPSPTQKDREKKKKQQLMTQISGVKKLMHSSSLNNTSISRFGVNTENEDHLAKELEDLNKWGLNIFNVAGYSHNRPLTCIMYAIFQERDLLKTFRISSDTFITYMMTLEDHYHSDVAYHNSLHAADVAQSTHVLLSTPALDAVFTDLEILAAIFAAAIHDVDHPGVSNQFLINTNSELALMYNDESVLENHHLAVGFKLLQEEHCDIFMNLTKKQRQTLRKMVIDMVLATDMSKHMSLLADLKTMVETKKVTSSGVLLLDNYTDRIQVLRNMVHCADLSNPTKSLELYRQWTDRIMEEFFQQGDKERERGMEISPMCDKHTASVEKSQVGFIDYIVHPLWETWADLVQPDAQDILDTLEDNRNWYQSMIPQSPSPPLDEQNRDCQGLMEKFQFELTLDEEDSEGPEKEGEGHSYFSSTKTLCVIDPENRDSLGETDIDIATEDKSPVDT

PDE4D2 = PDE4D2 (Homo sapiens, UniProt Q08499); test: PDE4D2 enzyme experiment (AMP-Glo)
PDE4D2, sequence (Q08499 303-809 limits assumed): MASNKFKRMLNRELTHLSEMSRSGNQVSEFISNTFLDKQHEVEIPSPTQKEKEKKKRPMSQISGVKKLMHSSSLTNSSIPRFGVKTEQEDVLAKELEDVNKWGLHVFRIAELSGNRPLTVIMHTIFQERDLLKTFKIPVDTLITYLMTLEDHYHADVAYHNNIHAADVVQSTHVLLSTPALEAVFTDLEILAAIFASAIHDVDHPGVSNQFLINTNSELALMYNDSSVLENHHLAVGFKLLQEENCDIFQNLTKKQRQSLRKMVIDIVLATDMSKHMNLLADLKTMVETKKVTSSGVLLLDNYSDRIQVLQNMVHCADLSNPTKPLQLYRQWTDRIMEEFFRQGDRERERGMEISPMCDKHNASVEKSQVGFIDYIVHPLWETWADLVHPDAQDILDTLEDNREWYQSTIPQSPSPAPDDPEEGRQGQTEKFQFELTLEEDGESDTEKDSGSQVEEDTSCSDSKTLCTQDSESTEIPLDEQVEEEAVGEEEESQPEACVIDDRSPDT

Flpin-293-PDE4B2 cells [2] = molecular target: T2, Flpin-293-PDE4B2 cells (Homo sapiens, UniProt Q07343); test: cell-based; details: for inhibition at 0.01 µM: read-out: Cell Inhibition % @10 nM, 10 nM, Flpin-293-PDE4B2 cells; for inhibition at 0.1 µM: read-out: Cell Inhibition % @100 nM, 100 nM, Flpin-293-PDE4B2 cells
T2 sequence (Q07343 1-564 isoform Q07343-2): as the sequence (Q07343 1-564 isoform Q07343-2, species assumed) above

Flpin-293-PDE4B2 cells [3] = molecular target: T2, Flpin-293-PDE4B2 cells; details: for Cell Inhibition % @10 nM: 0.01 µM; for Cell Inhibition % @1 nM: 0.001 µM; for Cell Inhibition % @100 nM: 0.1 µM; for IC50: read-out: PDE4B2 IC50 Cell, Foskolin
PDE4B2 [4] = molecular target: T1, PDE4B2; details: read-out: PDE4B2 IC50; enzyme assay
[5] = read-out: PDE4D2 IC50 Binding, enzyme assay

Row | SMILES | inhibition at 0.01 µM (PDE4B2 [1]) [%] | inhibition at 0.1 µM (PDE4B2 [1]) [%] | inhibition at 0.01 µM (Flpin-293-PDE4B2 cells [2]) [%] | inhibition at 0.1 µM (Flpin-293-PDE4B2 cells [2]) [%] | Cell Inhibition % @10 nM (Flpin-293-PDE4B2 cells [3]) [%] | IC50 (PDE4B2 [4]) [nM] | IC50 (PDE4D2; [5]) [nM] | also measured
1 | [O-][S@+]1CCc2nc(N3CCc4c(ccc5[nH]ncc45)C3)nc(NC3(CO)CCC3)c21 [Compound 118, (R)-4-((1-(hydroxymethyl)cyclobutyl)amino)-2-(3,6,8,9-tetrahydro-7H-pyrazolo[4,3-f]isoquinolin-7-yl)-6,7-dihydrothieno[3,2-d]pyrimidine 5-oxide] | – | – | – | – | – | – | – | IC50 (PDE4B2 [1]): 0.414 nM; IC50 (PDE4D2): 0.748 nM
2 | [O-][S+]1CCc2nc(N3CCc4ccc(Br)cc4CC3)nc(NC3(CO)CCC3)c21 (centres unmarked) [Compound 46] | 98.9 | 100 | 69.6 | 99 | – | – | – | –
3 | Cn1nc2c(c1Cl)CN(c1nc3c(c(NC4(CO)CCC4)n1)[S+]([O-])CC3)CC2 (centres unmarked) [Compound 58] | 68.7 | 97.5 | 15.9 | 57.1 | – | – | – | –
4 | [O-][S+]1CCc2nc(N3CCc4sc(Br)cc4C3)nc(NC3(CO)CCC3)c21 (centres unmarked) [Compound 55] | 93.3 | 99.9 | 52.8 | 93.4 | – | – | – | –
5 | C[C@@H]1c2ccc(Cl)cc2CCN1c1nc2c(c(NC3(CO)CCC3)n1)[S@+]([O-])CC2 [Compound 29] | – | – | – | – | – | – | – | IC50 (Flpin-293-PDE4B2 cells [3]): 20.9 nM

Continued, in another order:

Row | inhibition at 0.01 µM (PDE4B2 [1]) [%] | inhibition at 0.1 µM (PDE4B2 [1]) [%] | inhibition at 0.01 µM (Flpin-293-PDE4B2 cells [2]) [%] | inhibition at 0.1 µM (Flpin-293-PDE4B2 cells [2]) [%] | Cell Inhibition % @10 nM (Flpin-293-PDE4B2 cells [3]) [%] | IC50 (PDE4B2 [4]) [nM] | IC50 (PDE4D2; [5]) [nM] | SMILES | also measured
6 | 70.9 | 98.2 | 17.7 | 55.2 | – | – | – | O=[N+]([O-])c1ccc2c(c1)CN(c1nc3c(c(NC4(CO)CCC4)n1)[S+]([O-])CC3)C2 (centres unmarked) [Compound 61] | –
7 | – | – | – | 83.1 | 23.21 | – | – | [O-][S+]1CCc2nc(N3CCc4cc(N5CCCC5C(F)(F)F)ccc4C3)nc(NC3(CO)CCC3)c21 (centres unmarked) [Compound 157] | inhibition at 0.001 µM (Flpin-293-PDE4B2 cells [2]; read-out: Cell Inhibition % @1 nM, 1 nM, Flpin-293-PDE4B2 cells): 8.27%
8 | – | – | – | – | 61.64 | 0.273 | 0.653 | [O-][S+]1CCc2nc(N3CCc4cc(N5CCCC5C(F)(F)F)ccc4C3)nc(NC3(CO)CCC3)c21 (centres unmarked) [Compound 158] | Cell Inhibition % @1 nM (Flpin-293-PDE4B2 cells [3]): 14.79%; Cell Inhibition % @100 nM (Flpin-293-PDE4B2 cells [3]): 99.33%
9 | – | – | – | – | 75.05 | 0.224 | 0.748 | N#CC1CCN(c2ccc3c(c2)CCN(c2nc4c(c(NC5(CO)CCC5)n2)[S+]([O-])CC4)C3)C1 (centres unmarked) [Compound 160] | Cell Inhibition % @1 nM (Flpin-293-PDE4B2 cells [3]): 15.06%; Cell Inhibition % @100 nM (Flpin-293-PDE4B2 cells [3]): 99.84%
10 | – | – | – | – | – | 0.087 | 0.993 | C[C@H]1c2ccc(N3CCCC3)cc2CCN1c1nc2c(c(NC3(CO)CCC3)n1)[S+]([O-])CC2 (some centres unmarked) [Compound 167] | IC50 (Flpin-293-PDE4B2 cells [3]): 20.7 nM
